The experiment relates to MDCK II cells. Description: Permeation evaluation test with FD4 marker (dextran, molecular weight 4000) across a model epithelial cell layer in a transwell. In kind it is cell-based, dog. To be noted: for cell-layer-permeation-promoting effect (permeation of FD4, result in words): 0.003 mM in 1 v/v % DMSO, FIG. 1-4; for increase/accumulation in the amount permeating the receiver solution, late period / reversibility of the permeation-accelerating effect: 0.003 mM; for increase/accumulation in the amount permeating the receiver solution, late period: period from two hours to five hours after the start of testing, test example 1; for reversibility of the permeation-accelerating effect: recovery of tight junctions and other cell bonding structures; for increase in the amount of FD4 permeating the receiver solution with respect to the negative control (factor): test substance 0.003 mM in 1 v/v % DMSO, two hours after the start of testing, test example 1, FIG. 1; for cell-layer-permeation-promoting effect compared with cu538-2: both at 0.003 mM, test examples 2-4, FIG. 2-4. As to the method:
MDCK II cells derived from dog kidney epithelial cells were used to create a model of an epithelial cell layer in which a transwell was used, and a test to evaluate permeation by substances was conducted. Specifically, MDCK II cells in a logarithmic growth phase were sowed in a transwell (diameter: 6.5 mm, collagen coat, pore size: 0.4 μm) (trade name “Corning Transwell 3495,” made by Corning Co., Ltd.) at a cell count of 3.4 to 4.0×10^4 cells, a 24-hole well plate was used as basal-side wells, and 600 μL of a cell growth medium was introduced into each of apical-side wells and the basal-side wells. The medium was replaced daily to form a layer, and three days after sowing the medium was replaced with a Hank's balanced salt solution (HESS) for measurement. After incubation for one hour at 37° C., layer formation was confirmed by measuring the transepithelial electrical resistance (TEER) using a resistance value measurement system (trade name “Millicell-ERS,” made by Millipore Corp.). After layer formation was confirmed, the apical-side medium was replaced by 100 μL of HESS to which a marker substance (FD4: […]) (made by Sigma KK) having a molecular weight of 4000 was added so as to reach a concentration of 1.0 w/v %, and test substances were added so as to reach the final concentrations indicated below. The transwell was shifted, at intervals of 30 minutes until five hours after addition of the marker substance, to the basal-side wells into which the new HESS entered, and the HESS in the remaining basal-side wells (referred to as a “receiver solution” below) was retrieved 50 μL at a time per well in a 96-hole well plate. The fluorescence intensity of the retrieved HESS at an excitation wavelength of 485 nm and a fluorescence wavelength of 528 nm was measured using a fluorescent plate reader (trade name “Wallac 1420 ARVO MX,” made by Perkin Elmer Corp.).
A test to evaluate permeation by substances was conducted in the same manner as in test example 1, except that the test substances were as indicated below.

Molecules are shown by their SMILES. “Also recorded” adds a separate entry of the source. Where a SMILES comes first, the peptide text is derived from it. Bridges are numbered along the chain shown (N, C = ends). [ ]: non-standard residue; d: D form. The star is where a group is joined. ξ: configuration not given here. Decanoyl(3ξ-OH) = CCCCCCCC(O)CC(=O)*; Decanoyl = CCCCCCCCCC(=O)*

For the molecule `CCCCCCC[C@H](O)CC(=O)N[C@@H](CC(C)C)C(=O)N[C@H](CCC(=O)O)C(=O)N[C@H](CCC(N)=O)C(=O)N[C@@H](C(=O)N[C@H](CC(C)C)C(=O)N[C@@H](CCC(N)=O)C(=O)N[C@@H]1COC(=O)[C@H]([C@@H](C)CC)NC(=O)[C@@H](CCC(N)=O)NC(=O)[C@H](CC(C)C)NC(=O)[C@H](CC(C)C)NC(=O)[C@@H](CCC(N)=O)NC(=O)[C@@H](CC(C)C)NC(=O)[C@@H](C(C)C)NC1=O)C(C)C` (single isomer, unassigned) [cu538-1], the “cell-layer-permeation-promoting effect (permeation of FD4, result in words)” value is listed as “accelerated permeation of substances in the paracellular pathway”; the “increase/accumulation in the amount permeating the receiver solution, late period” value is on record as “substantially no increase/accumulation”; the “reversibility of the permeation-accelerating effect” value (“reversibility” for short) is on record as “reversible”; the “increase in the amount of FD4 permeating the receiver solution with respect to the negative control (factor)” value is recorded as “four”.
Regarding `CCCCCCC[C@@H](O)CC(=O)N[C@@H](CC(C)C)C(=O)N[C@H](CCC(=O)O)C(=O)N[C@H](CCC(N)=O)C(=O)N[C@@H](C(=O)N[C@H](CC(C)C)C(=O)N[C@@H](CCC(N)=O)C(=O)N[C@@H]1COC(=O)[C@H]([C@@H](C)CC)NC(=O)[C@@H](CCC(N)=O)NC(=O)[C@H](CC(C)C)NC(=O)[C@H](CC(C)C)NC(=O)[C@@H](CCC(N)=O)NC(=O)[C@@H](CC(C)C)NC(=O)[C@@H](C(C)C)NC1=O)C(C)C` [cu538-2], the “cell-layer-permeation-promoting effect (permeation of FD4, result in words)” value is “accelerated permeation of substances in the paracellular pathway”; the “increase/accumulation in the amount permeating the receiver solution, late period” value is on record as “substantially no increase/accumulation”; the “reversibility” value is reported as “reversible”; the “increase in the amount of FD4 permeating the receiver solution with respect to the negative control (factor)” value was “eight”.
Take `CCCCCCCC(O)CC(=O)N[C@@H](CC(C)C)C(=O)N[C@H](CCC(=O)O)C(=O)N[C@H](CCC(N)=O)C(=O)N[C@@H](C(=O)N[C@H](CC(C)C)C(=O)N[C@@H](CCC(N)=O)C(=O)N[C@@H]1COC(=O)[C@H]([C@@H](C)CC)NC(=O)[C@@H](CCC(N)=O)NC(=O)[C@H](CC(C)C)NC(=O)[C@H](CC(C)C)NC(=O)[C@@H](C)NC(=O)[C@@H](CC(C)C)NC(=O)[C@@H](C(C)C)NC1=O)C(C)C` (stereo partly drawn) [cu605] ({Decanoyl(3ξ-OH)}-L[dE][dQ][dV][dL]Q[dS][dV][dL][dA]LL[dQ]I; ester 7-C): the “cell-layer-permeation-promoting effect (permeation of FD4, result in words)” value is given as “found to have an effect”.
On to `CCCCCCCC(O)CC(=O)N[C@@H](CC(C)C)C(=O)N[C@H](CCC(=O)O)C(=O)N[C@H](CCC(N)=O)C(=O)N[C@@H](C(=O)N[C@H](CC(C)C)C(=O)N[C@@H](CCC(N)=O)C(=O)N[C@@H]1COC(=O)[C@H]([C@@H](C)CC)NC(=O)[C@@H](C)NC(=O)[C@H](CC(C)C)NC(=O)[C@H](CC(C)C)NC(=O)[C@@H](CCC(N)=O)NC(=O)[C@@H](CC(C)C)NC(=O)[C@@H](C(C)C)NC1=O)C(C)C` (stereo partly drawn) [cu619] ({Decanoyl(3ξ-OH)}-L[dE][dQ][dV][dL]Q[dS][dV][dL][dQ]LL[dA]I; ester 7-C), for which the “cell-layer-permeation-promoting effect (permeation of FD4, result in words)” value is on record as “found to have an effect” and the “cell-layer-permeation-promoting effect compared with cu538-2” value was “more remarkable”.
Turning to `CCCCCCCC(O)CC(=O)N[C@@H](CC(C)C)C(=O)N[C@H](CCC(=O)O)C(=O)N[C@H](CCC(N)=O)C(=O)N[C@@H](C(=O)N[C@H](CC(C)C)C(=O)N[C@@H](C)C(=O)N[C@@H]1COC(=O)[C@H]([C@@H](C)CC)NC(=O)[C@@H](CCC(N)=O)NC(=O)[C@H](CC(C)C)NC(=O)[C@H](CC(C)C)NC(=O)[C@@H](CCC(N)=O)NC(=O)[C@@H](CC(C)C)NC(=O)[C@@H](C(C)C)NC1=O)C(C)C` (stereo partly drawn) [cu592] ({Decanoyl(3ξ-OH)}-L[dE][dQ][dV][dL]A[dS][dV][dL][dQ]LL[dQ]I; ester 7-C), the “cell-layer-permeation-promoting effect compared with cu538-2” value is listed as “equivalent”.
For the molecule `CCCCCCCCCC(=O)N[C@@H](CC(C)C)C(=O)N[C@H](CCC(=O)O)C(=O)N[C@H](CCC(N)=O)C(=O)N[C@@H](C(=O)N[C@H](CC(C)C)C(=O)N[C@@H](CCC(N)=O)C(=O)N[C@@H]1COC(=O)[C@H]([C@@H](C)CC)NC(=O)[C@@H](CCC(N)=O)NC(=O)[C@H](CC(C)C)NC(=O)[C@H](CC(C)C)NC(=O)[C@@H](CCC(N)=O)NC(=O)[C@@H](CC(C)C)NC(=O)[C@@H](C(C)C)NC1=O)C(C)C` [NY-38] (Decanoyl-L[dE][dQ][dV][dL]Q[dS][dV][dL][dQ]LL[dQ]I; ester 7-C), the “cell-layer-permeation-promoting effect (permeation of FD4, result in words)” value was “accelerated permeation of substances in the paracellular pathway; also recorded: cell-layer-permeation-promoting effect was found”; the “reversibility” value is on record as “reversible”; the “cell-layer-permeation-promoting effect compared with cu538-2” value is recorded as “more remarkable”.
For `C/C1=C/C(=O)O[C@@H]2C[C@@H](CC[C@H](C)/C=C\C=C\CC1)O[C@@](O)([C@@H]1CSC(=O)N1)C2` [Latrunclin A, reference compound], under “0.0001 mM in 1 v/v % DMSO, over five hours after the start of testing”, the “amount of marker substance permeating the receiver solution over time (positive control)” value was “continuous increase/accumulation”.
